From patent US8183252B2, “Heterocyclic aspartyl protease inhibitors” (Schering Corporation, priority 2007, dated 2012) come the findings set out here.

The target in one test is T1, human liver Cathepsin D (Homo sapiens, UniProt P07339).
T1 construct: Purified (>95%) human liver Cathepsin D; purchased Athens Research & Technology 16-12-030104; host or cells: human liver (tissue-derived)
The experiment in a line: Human Cathepsin D FRET Assay. It counts as biochemical. The conditions noted are these: compounds listed as exhibiting hCathD Ki under 75 nM; Ki interpolated from IC50, Km 4 uM, substrate 2.5 uM. Here is the method:
This assay can be run in either continuous or endpoint format. […] Substrate and enzyme are commercially available.
The assay is run in a 30 ul final volume using a 384 well Nunc black plate. 8 concentrations of compound are pre-incubated with enzyme for 30 mins at 37 C followed by addition of substrate with continued incubation at 37 C for 45 mins. The rate of increase in fluorescence is linear for over 1 h and is measured at the end of the incubation period using a Molecular Devices FLEX station plate reader.
Compound is diluted to 3× final concentration in assay buffer containing 3% DMSO. […] 10 ul of substrate is added to each well mixed and spun briefly to initiate the reaction.

Another test has as its target T2, human BACE1 (sproBACE1) (Homo sapiens, UniProt P56817).
T2 construct: sBACE1, corresponding to amino acids 1-454; made in house; host or cells: Sf9 insect cells (baculovirus), secreted into the medium
The experiment in a line: BACE-1 Peptide Hydrolysis Assay (HTRF). Type of test: biochemical. The conditions noted are these: read-out: BACE-1 Ki. Summed up: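 Secreted sBACE1-myc/His from baculovirus-infected sf9 cells, purified on Q-sepharose then Ni-NTA. Substrate-initiated reactions ran 3 hr at 30° C., then were stopped with KF buffer (pH 8.0) containing SA-XL665 for HTRF read-out. EC50 was fitted by sigmoidal dose-response to percent change in ratio.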

T2 sequence (P56817 22-454): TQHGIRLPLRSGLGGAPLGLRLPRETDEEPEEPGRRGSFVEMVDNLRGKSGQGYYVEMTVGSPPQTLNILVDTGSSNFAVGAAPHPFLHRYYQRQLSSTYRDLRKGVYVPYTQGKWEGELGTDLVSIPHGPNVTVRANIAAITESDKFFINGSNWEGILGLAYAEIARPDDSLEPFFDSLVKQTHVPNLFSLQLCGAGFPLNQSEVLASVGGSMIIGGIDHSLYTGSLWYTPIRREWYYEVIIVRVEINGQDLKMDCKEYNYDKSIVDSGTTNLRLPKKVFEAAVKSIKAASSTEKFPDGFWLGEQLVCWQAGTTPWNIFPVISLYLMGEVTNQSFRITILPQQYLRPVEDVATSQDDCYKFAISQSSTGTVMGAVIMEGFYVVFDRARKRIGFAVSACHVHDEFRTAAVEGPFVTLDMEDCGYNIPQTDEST
T1 sequence (P07339 65-161 limits assumed): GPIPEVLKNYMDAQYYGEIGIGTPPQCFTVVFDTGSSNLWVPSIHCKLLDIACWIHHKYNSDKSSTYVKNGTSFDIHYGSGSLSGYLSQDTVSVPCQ
T1 sequence (P07339 169-412 limits assumed): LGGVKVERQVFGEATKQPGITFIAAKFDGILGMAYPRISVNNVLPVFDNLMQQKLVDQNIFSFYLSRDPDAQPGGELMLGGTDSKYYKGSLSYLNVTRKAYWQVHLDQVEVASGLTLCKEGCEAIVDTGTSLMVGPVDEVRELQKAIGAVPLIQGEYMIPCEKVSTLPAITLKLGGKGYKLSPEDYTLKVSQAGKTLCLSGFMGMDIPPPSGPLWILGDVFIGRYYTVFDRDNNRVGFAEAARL

At human liver Cathepsin D, `N=C1N[C@](CCC2CCCCC2)(CC2CCCCC2)C(=O)N1Cc1cccc([N+](=O)[O-])c1` gave a Ki of less than 0.075 µM.
For the compound `CC(C)C[C@H](CO)N1C(=N)N[C@](CCC2CCCCC2)(CC2CCCCC2)C1=O`, the Ki at human liver Cathepsin D was less than 0.075 µM.
Same read-out and setting: with `CCC[C@H]1CN(Cc2ccc(CC3C(=N)N[C@](CCC4CCCCC4)(CC4CCCCC4)C3=O)cc2)C(=O)N1` (stereo partly drawn) the figure was less than 0.075 µM.
On the same count and under the same terms, with `N=C1N[C@](CCC2CCCCC2)(CC2CCCCC2)C(=O)N1Cc1ccc([N+](=O)[O-])cc1` the figure was less than 0.075 µM; with `CCCCC1(c2cccc(Br)c2)NC(=N)N(CC2CCN(C(=O)COc3ccccc3)CC2)C1=O` (stereo not drawn), less than 0.075 µM.
Still for that read-out and setting: in the case of `CCCCOC1CCCC(C[C@@]2(CCC3CCCCC3)NC(=N)N(C)C2=O)C1` (stereo partly drawn) it was less than 0.075 µM.
For `C[C@@H](C1CCCCC1)N1C(=N)N[C@](CCC2CCCCC2)(CC2CCCCC2)C1=O`, the Ki on human liver Cathepsin D was less than 0.075 µM.
The same measure, in the same setting: in the case of `CCCCNC(=O)NCc1ccc(CN2C(=N)NC(CCC3CCCCC3)(CC3CCCCC3)C2=O)cc1` (stereo not drawn) it was less than 0.075 µM; in that of `N=C1N[C@](CCC2CCCCC2)(CC2CCCCC2)C(=O)N1CCC(c1ccccc1)c1ccccc1`, less than 0.075 µM; in that of `CCCCNC(=O)NCc1ccc(CN2C(=N)NC(CCC3CCCCC3)(CC3CCCCC3)CC2=O)cc1` (stereo not drawn), less than 0.075 µM.
With `N=C1NC(CCC2CCCCC2)(CC2CCCCC2)C(=O)N1CC1CCN(C(=O)COc2ccccc2)CC1` (stereo not drawn), the Ki at human liver Cathepsin D is less than 0.075 µM.
`N=C1NC(CCC2CCCCC2)(c2cccc(Br)c2)C(=O)N1CC1CCN(C(=O)COc2ccccc2)CC1` (stereo not drawn) returned a Ki at human liver Cathepsin D of less than 0.075 µM.
The same measure, in the same setting: in the case of `N=C1N[C@](CCC2CCCCC2)(CC2CCCCC2)C(=O)N1Cc1ccc(F)cc1` it was less than 0.075 µM.
With `N=C1NC(c2cccc(-c3cccc(Cl)c3)c2)(C2CC2)C(=O)N1C1CCOCC1` (stereo not drawn) [4-imidazolidinone, 5-(3′-chloro[1,1′-biphenyl]-3-yl)-5-cyclopropyl-2-imino-3-(tetrahydro-2H-pyran-4-yl)-], the Ki at human BACE1 (sproBACE1) was less than 5 µM.
On the same count and under the same terms, with `CCC(CO)N1C(=N)NC(c2cccc(-c3cccc(Cl)c3)c2)(C2CC2)C1=O` (stereo not drawn) [4-imidazolidinone, 5-(3′-chloro[1,1′-biphenyl]-3-yl)-5-cyclopropyl-3-[1-(hydroxymethyl)propyl]-2-imino-] the figure was less than 5 µM; with `N=C1NC(c2cccc(-c3cccc(Cl)c3)c2)(C2CC2)C(=O)N1C(CO)CO` (stereo not drawn) [4-imidazolidinone, 5-(3′-chloro[1,1′-biphenyl]-3-yl)-5-cyclopropyl-3-[2-hydroxy-1-(hydroxymethyl)ethyl]-2-imino-], less than 5 µM; with `CCN(CC)CCCN1C(=N)NC(c2cccc(-c3cccc(Cl)c3)c2)(C2CC2)C1=O` (stereo not drawn) [4-imidazolidinone, 5-(3′-chloro[1,1′-biphenyl]-3-yl)-5-cyclopropyl-3-[3-(diethylamino)propyl]-2-imino-], less than 5 µM.
Still for that read-out and setting: with `CC(C)[C@H](CO)N1C(=N)NC(c2cccc(-c3cccc(Cl)c3)c2)(C2CC2)C1=O` (stereo partly drawn) [4-imidazolidinone, 5-(3′-chloro[1,1′-biphenyl]-3-yl)-5-cyclopropyl-3-[(1R)-1-(hydroxymethyl)-2-methylpropyl]-2-imino-] the figure was less than 5 µM; with `CN1C(=N)NC(c2cccc(Br)c2)(C2(C)CC2)C1=O` (stereo not drawn) [5-(3-BROMOPHENYL)-2-IMINO-3-METHYL-5-(1-METHYLCYCLOPROPYL)-4-IMIDAZOLIDINONE], less than 5 µM; with `CN1C(=N)NC(c2cccc(Br)c2)(C2CCC2)C1=O` (stereo not drawn) [5-(3-BROMOPHENYL)-5-CYCLOBUTYL-2-IMINO-3-METHYL-4-IMIDAZOLIDINONE], less than 5 µM.
Same read-out and setting: in the case of `CN1C(=N)NC(c2cccc(Br)c2)(C2CCCCC2)C1=O` (stereo not drawn) [5-(3-BROMOPHENYL)-5-CYCLOHEXYL-2-IMINO-3-METHYL-4-IMIDAZOLIDINONE] it was less than 5 µM.
Consider `CN1C(=N)NC(c2cccc(Br)c2)(C2CCCC2)C1=O` (stereo not drawn) [5-(3-BROMOPHENYL)-5-CYCLOPENTYL-2-IMINO-3-METHYL-4-IMIDAZOLIDINONE], for which, at human BACE1 (sproBACE1), the Ki is less than 5 µM.
On to `CN1C(=N)NC(c2cccc(-n3ccnc3)c2)(C2CC2)C1=O` (stereo not drawn) [5-CYCLOPROPYL-5-[3-(1H-IMIDAZOL-1-YL)PHENYL]-2-IMINO-3-METHYL-4-IMIDAZOLIDINONE], for which, at human BACE1 (sproBACE1), the Ki is less than 5 µM.
On the same count and under the same terms, with `CN1C(=N)NC(c2ccccc2)(c2cc(-c3cccc(Cl)c3)cs2)C1=O` (stereo not drawn) [5-[4-(3-CHLOROPHENYL)-2-THIENYL]-2-IMINO-3-METHYL-5-PHENYL-4-IMIDAZOLIDINONE] the figure was less than 5 µM; with `CN1C(=N)NC(c2ccccc2)(c2cc(-c3cccc(F)c3)cs2)C1=O` (stereo not drawn) [5-[4-(3-FLUOROPHENYL)-2-THIENYL]-2-IMINO-3-METHYL-5-PHENYL-4-IMIDAZOLIDINONE], less than 5 µM.
Still for that read-out and setting: in the case of `N=C1NC(c2ccccc2)(c2ccccc2)C(=O)N1Cc1cccc(NC(=O)c2ccccc2)c1` [BENZAMIDE, N-[3-[(2-IMINO-5-OXO-4,4-DIPHENYL-1-IMIDAZOLIDINYL)METHYL]PHENYL]-] it was less than 5 µM.
Still for that read-out and setting: in the case of `CCCC(=O)Nc1cccc(CN2C(=N)NC(c3ccccc3)(c3ccccc3)C2=O)c1` [BUTANAMIDE, N-[3-[(2-IMINO-5-OXO-4,4-DIPHENYL-1-IMIDAZOLIDINYL)METHYL]PHENYL]-] it was less than 5 µM; in that of `COc1ccccc1C(=O)NCc1ccc(Cl)cc1-c1cccc(C2(C)NC(=N)N(C)C2=O)c1` (stereo not drawn) [benzamide, N-[[5-chloro-3′-(2-imino-1,4-dimethyl-5-oxo-4-imidazolidinyl)[1,1′-biphenyl]-2-yl]methyl]-2-methoxy-], less than 5 µM; in that of `CN1C(=N)NC(C)(c2cccc(-c3cc(Cl)ccc3CNC(=O)Cc3ccccc3)c2)C1=O` (stereo not drawn) [benzeneacetamide, N-[[5-chloro-3′-(2-imino-1,4-dimethyl-5-oxo-4-imidazolidinyl)[1,1′-biphenyl]-2-yl]methyl]-], less than 5 µM.
As for `CN1C(=N)NC(C)(c2cccc(-c3cc(Cl)ccc3CNS(=O)(=O)c3ccccc3)c2)C1=O` (stereo not drawn) [benzenesulfonamide, N-[[5-chloro-3′-(2-imino-1,4-dimethyl-5-oxo-4-imidazolidinyl)[1,1′-biphenyl]-2-yl]methyl]-], the Ki on human BACE1 (sproBACE1) was less than 5 µM.
Turning to `CCS(=O)(=O)Nc1ccc(CN2C(=N)NC(c3ccccc3)(c3ccccc3)C2=O)cc1` [ethanesulfonamide, N-[4-[(2-imino-5-oxo-4,4-diphenyl-1-imidazolidinyl)methyl]phenyl]-], on human BACE1 (sproBACE1), the Ki was less than 5 µM.
On the same count and under the same terms, with `CCCCS(=O)(=O)N1CCC(CN2C(=N)NC(c3ccccc3)(c3ccccc3)C2=O)CC1` [piperidine, 1-(butylsulfonyl)-4-[(2-imino-5-oxo-4,4-diphenyl-1-imidazolidinyl)methyl]-] the figure was less than 5 µM; with `CCS(=O)(=O)N1CCC(CN2C(=N)NC(c3ccccc3)(c3ccccc3)C2=O)CC1` [piperidine, 1-(ethylsulfonyl)-4-[(2-imino-5-oxo-4,4-diphenyl-1-imidazolidinyl)methyl]-], less than 5 µM.
Consider `N=C1NC(c2ccccc2)(c2ccccc2)C(=O)N1CC1CCN(S(=O)(=O)c2ccc(F)c(Cl)c2)CC1` [piperidine, 1-[(3-chloro-4-fluorophenyl)sulfonyl]-4-[(2-imino-5-oxo-4,4-diphenyl-1-imidazolidinyl)methyl]-], for which the Ki at human BACE1 (sproBACE1) is less than 5 µM.
On the same count and under the same terms, in the case of `N=C1NC(c2ccccc2)(c2ccccc2)C(=O)N1CC1CCN(S(=O)(=O)c2ccc3ccccc3c2)CC1` [piperidine, 4-[(2-imino-5-oxo-4,4-diphenyl-1-imidazolidinyl)methyl]-1-(2-naphthalenylsulfonyl)-] it was less than 5 µM; in that of `CS(=O)(=O)N1CCC(CN2C(=N)NC(c3ccccc3)(c3ccccc3)C2=O)CC1` [piperidine, 4-[(2-imino-5-oxo-4,4-diphenyl-1-imidazolidinyl)methyl]-1-(methylsulfonyl)-], less than 5 µM.
The same measure, in the same setting: in the case of `N=C1NC(c2ccccc2)(c2ccccc2)C(=O)N1CC1CCN(S(=O)(=O)c2ccccc2)CC1` [piperidine, 4-[(2-imino-5-oxo-4,4-diphenyl-1-imidazolidinyl)methyl]-1-(phenylsulfonyl)-] it was less than 5 µM; in that of `CCCS(=O)(=O)N1CCC(CN2C(=N)NC(c3ccccc3)(c3ccccc3)C2=O)CC1` [piperidine, 4-[(2-imino-5-oxo-4,4-diphenyl-1-imidazolidinyl)methyl]-1-(propylsulfonyl)-], less than 5 µM.
Same read-out and setting: with `COc1ccc(S(=O)(=O)N2CCC(CN3C(=N)NC(c4ccccc4)(c4ccccc4)C3=O)CC2)cc1` [piperidine, 4-[(2-imino-5-oxo-4,4-diphenyl-1-imidazolidinyl)methyl]-1-[(4-methoxyphenyl)sulfonyl]-] the figure was less than 5 µM.
For the compound `N=C1NC(c2ccccc2)(c2ccccc2)C(=O)N1CC1CCN(S(=O)(=O)c2ccc(OC(F)(F)F)cc2)CC1` [piperidine, 4-[(2-imino-5-oxo-4,4-diphenyl-1-imidazolidinyl)methyl]-1-[[4-(trifluoromethoxy)phenyl]sulfonyl]-], the inhibitory constant (Ki) at human BACE1 (sproBACE1) was less than 5 µM.
The same measure, in the same setting: with `CN1C(=N)NC(C)(c2cccc(-c3cc(Cl)ccc3CNC(=O)Nc3ccc(Cl)cc3)c2)C1=O` (stereo not drawn) [urea, N-[[5-chloro-3′-(2-imino-1,4-dimethyl-5-oxo-4-imidazolidinyl)[1,1′-biphenyl]-2-yl]methyl]-N′-(4-chlorophenyl)-] the figure was less than 5 µM; with `CN1C(=N)NC(C)(c2cccc(-c3cc(Cl)ccc3CNC(=O)Nc3ccccc3)c2)C1=O` (stereo not drawn) [urea, N-[[5-chloro-3′-(2-imino-1,4-dimethyl-5-oxo-4-imidazolidinyl)[1,1′-biphenyl]-2-yl]methyl]-N′-phenyl-], less than 5 µM.
